Data on six compounds can be found in patent publication US20150038430A1, “THERAPEUTIC PEPTIDOMIMETIC MACROCYCLES” (AILERON Therapeutics, Inc., priority 2008, published 2015).

Numbered stars: 1 amine (or outer) side, 2 acyl side, 3 side chain; on linkers, the order of the positions; unused ones are H or OH. Bridge positions count the residues as written; N and C are the ends. Square brackets hold non-standard residues; d marks the D form. Peptide text beside a SMILES is read from it. * marks the point of attachment. ξ: configuration not given here. ξαMeNle(6-ylidene) = CC(CCCC=[*:3])(N[*:1])C(=O)[*:2]; Nle = CCCC[C@H](N)C(=O)O; Aib = CC(C)(N)C(=O)O; Propionyl = CCC(=O)*

Format in all cases: cell-based, human
Holding throughout (conditions): 24 h

One assay concerns A375. As to the method: (§1) Cell viability assays shown in FIGS. 34-52 were performed according to a similar protocol. Cells were split at optimal cell density a day prior to the initiation of the study. The next day, cells were washed twice in serum-free Opti-MEM media and 4000 cells/well were added to each well in a final volume of […] Opti-MEM. For serum-free experiments, macrocycles were diluted from 2 mM stocks (100% DMSO) in sterile water to prepare 400 μM working solutions. A 40 μM solution was then generated by ten-fold dilution in assay buffer. The macrocycle and controls were then serially diluted two-fold in assay buffer in dosing plates to provide concentrations between 1.2 and 40 μM, respectively. For experiments in 2% human serum, macrocycles were diluted from 10 mM stocks (100% DMSO) in sterile water to prepare 1 mM working solutions. A 100 μM solution was generated by ten-fold dilution in assay buffer. The macrocycles and controls were then serially diluted two-fold in assay buffer in dosing plates to provide concentrations between 3 and 100 μM, respectively. 50 μl of each dilution was then added to the appropriate wells of the test plate to achieve final concentrations of the macrocycle between 0.6 to 20 μM (for serum free experiment) or 1.5 to 50 μM (for 2% serum experiment), respectively. Controls included wells without macrocycles containing the same concentration of DMSO as the macrocycle-containing wells, wells containing 0.1% Triton X-100, and wells containing no cells. Plates were incubated for 24 hours at 37° C. in a humidified 5% CO2 atmosphere. At the end of a 24 hr incubation period, a CellTiter-Glo Luminescent Cell Viability Assay was performed according to manufacturer's instructions (Promega, catalog #G7571) and the luminescence was measured using a BIO-TEK synergy HT Plate reader. Values were plotted as percent viable, i.e. as a percentage of the negative control value (derived from cells exposed to DMSO only). All assays were performed in duplicate.
(§2) The following tables summarize the EC50 values (μM) observed with peptidomimetic macrocycles of the invention in various cell lines: […]

The next assay relates to DHL-6. As to the method:
as §1, §2

The next assay relates to Jurkat. Here is the method: as §1, §2
The next assay relates to MDA-MB231-Met. As to the method: as §1, §2
In a further assay the test system is MM1S. Here is the method:
as §1, §2

The next assay deals with Molt-4. Here is the method:
as §1, §2

The next assay concerns NCI-H82 (SCLC-MCL1+). Here is the method:
as §1, §2

The next assay deals with OVCAR8. Here is the method: as §1, §2
A further assay concerns PC3. Here is the method:
as §1, §2

The subject of another assay is RS4;11. Here is the method: as §1, §2
In a further assay the test system is Raji. As to the method:
as §1, §2

A further assay concerns SEMK2. Here is the method:
as §1, §2

In general, EC50 refers to the midpoint of the concentration-response curve. On to `CC[C@H](C)[C@H](NC(C)=O)C(=O)N[C@@H](Cc1c[nH]c2ccccc12)C(=O)N[C@H](C(=O)N[C@@H](C)C(=O)N[C@@H](CCC(N)=O)C(=O)N[C@@H](C)C(=O)N[C@@H](CC(C)C)C(=O)N[C@@H](CCCNC(=N)N)C(=O)NC1(C)CCCC=CCCCC(C)(C(=O)N[C@@H](Cc2ccccc2)C(=O)N[C@@H](CC(N)=O)C(=O)N[C@@H](C)C(=O)N[C@@H](Cc2ccc(O)cc2)C(=O)N[C@@H](Cc2ccc(O)cc2)C(=O)N[C@@H](C)C(=O)N[C@@H](CCCNC(=N)N)C(=O)N[C@@H](CCCNC(=N)N)C(N)=O)NC(=O)[C@H](CC(N)=O)NC(=O)CNC(=O)[C@H]([C@@H](C)CC)NC1=O)[C@@H](C)CC` (some centres unmarked) [SP-25] (Ac-IWIAQALR[ξαMeNle(6-ylidene)]IGN[ξαMeNle(6-ylidene)]FNAYYARR-NH2; staple 9-13), for which the concentration for a half-maximal effect (EC50) with A375 was found to be 1000 nM; with DHL-6 it was 600 nM; in the assay on Jurkat, 500 nM; in the assay on MDA-MB231-Met, 1000 nM; in the assay with MM1S, 600 nM; in the assay with Molt-4 it was 900 nM. Further, the EC50 in the assay on NCI-H82 (SCLC-MCL1+) is 500 nM; in the assay with OVCAR8, 1400 nM; in the assay with PC3 it was 600 nM; with RS4;11, 1000 nM; in the assay with Raji it was 1800 nM; with SEMK2, 900 nM.
`CC[C@H](C)[C@H](NC(=O)[C@H](Cc1c[nH]c2ccccc12)NC(=O)[C@H](CCCNC(=N)N)NC(C)=O)C(=O)N[C@@H](C)C(=O)N[C@@H](CCC(N)=O)C(=O)N[C@@H](C)C(=O)N[C@@H](CC(C)C)C(=O)N[C@@H](CCCNC(=N)N)C(=O)NC1(C)CCCC=CCCCC(C)(C(=O)N[C@@H](Cc2ccccc2)C(=O)N[C@@H](CC(N)=O)C(=O)N[C@@H](C)C(=O)N[C@@H](Cc2ccccc2)C(=O)N[C@@H](Cc2ccc(O)cc2)C(=O)N[C@@H](C)C(=O)N[C@@H](CCCNC(=N)N)C(=O)N[C@@H](CCCNC(=N)N)C(N)=O)NC(=O)[C@H](CC(=O)O)NC(=O)CNC(=O)[C@H]([C@@H](C)CC)NC1=O` (some centres unmarked) [SP-15] (Ac-RWIAQALR[ξαMeNle(6-ylidene)]IGD[ξαMeNle(6-ylidene)]FNAFYARR-NH2; staple 9-13): the concentration giving a half-maximal response (EC50) is 800 nM with A375; 500 nM in the assay on DHL-6; 400 nM with Jurkat; 900 nM in the assay on MDA-MB231-Met; 600 nM in the assay on MM1S; 700 nM in the assay on Molt-4. The EC50 in the assay with OVCAR8 came out at 1800 nM; with PC3, 2100 nM; in the assay on RS4;11, 1700 nM; with Raji, 1000 nM; in the assay with SEMK2 it was 800 nM.
As to `CC[C@H](C)[C@H](NC(=O)[C@H](Cc1c[nH]c2ccccc12)NC(=O)[C@H](CCCNC(=N)N)NC(C)=O)C(=O)N[C@@H](C)C(=O)N[C@@H](CCC(N)=O)C(=O)N[C@@H](C)C(=O)N[C@@H](CC(C)C)C(=O)N[C@@H](CCCNC(=N)N)C(=O)NC1(C)CCCC=CCCCC(C)(C(=O)N[C@@H](Cc2ccccc2)C(=O)N[C@@H](CC(N)=O)C(=O)N[C@@H](C)C(=O)N[C@@H](Cc2ccc(O)cc2)C(=O)N[C@@H](Cc2ccc(O)cc2)C(=O)N[C@@H](C)C(=O)N[C@@H](CCCNC(=N)N)C(=O)N[C@@H](CCCNC(=N)N)C(N)=O)NC(=O)[C@H](CC(N)=O)NC(=O)CNC(=O)[C@H]([C@@H](C)CC)NC1=O` (some centres unmarked) [SP-23] (Ac-RWIAQALR[ξαMeNle(6-ylidene)]IGN[ξαMeNle(6-ylidene)]FNAYYARR-NH2; staple 9-13), the concentration giving a half-maximal response (EC50) came out at 1000 nM in the assay with A375; 500 nM in the assay with DHL-6; 900 nM in the assay with Jurkat; 600 nM in the assay with MDA-MB231-Met; 700 nM with MM1S; 600 nM with Molt-4. Moreover, the EC50 in the assay with NCI-H82 (SCLC-MCL1+) is 600 nM; with OVCAR8, 900 nM; in the assay on PC3 it was 2000 nM; in the assay with RS4;11, 1000 nM; in the assay with Raji, 1800 nM; in the assay with SEMK2 it was 1000 nM.
Take `CCC(=O)N[C@@H](CCCNC(=N)N)C(=O)N[C@@H](CC(N)=O)C(=O)N[C@H](C(=O)N[C@@H](C)C(=O)N[C@@H](CCCNC(=N)N)C(=O)N[C@@H](Cc1c[nH]cn1)C(=O)N[C@@H](CC(C)C)C(=O)N[C@@H](C)C(=O)NC1(C)CCCC=CCCCC(C)(C(=O)N[C@@H](Cc2ccccc2)C(=O)N[C@@H](C)C(=O)N[C@@H](CCCNC(=N)N)C(=O)N[C@@H](CO)C(=O)N[C@H](C(N)=O)[C@@H](C)CC)NC(=O)[C@H](CC(=O)O)NC(=O)C(C)(C)NC(=O)[C@H](C(C)C)NC1=O)[C@@H](C)CC` (some centres unmarked) [SP-9] (Propionyl-RNIARHLA[ξαMeNle(6-ylidene)]V[Aib]D[ξαMeNle(6-ylidene)]FARSI-NH2; staple 9-13): the EC50 stood at 4100 nM in the assay on A375; 2700 nM with DHL-6; 1900 nM in the assay on Jurkat; 2900 nM in the assay with MDA-MB231-Met; 5500 nM in the assay with MM1S; 1000 nM in the assay on Molt-4. Moreover, the EC50 with NCI-H82 (SCLC-MCL1+) stood at 4200 nM; in the assay on OVCAR8, 7100 nM; in the assay on PC3, 5700 nM; in the assay on RS4;11 it was 4300 nM; with Raji, 5700 nM; in the assay with SEMK2, 8100 nM.
Consider `CCCC[C@H](NC(=O)C1(C)CCCC=CCCCC(C)(NC(=O)[C@H](C)NC(=O)[C@H](CC(C)C)NC(=O)[C@H](Cc2c[nH]cn2)NC(=O)[C@H](CCCNC(=N)N)NC(=O)[C@H](C)NC(=O)[C@@H](NC(=O)[C@H](CC(N)=O)NC(=O)[C@H](CCCNC(=N)N)NC(=O)CC)[C@@H](C)CC)C(=O)N[C@@H](C(C)C)C(=O)NCC(=O)N[C@@H](CC(=O)O)C(=O)N1)C(=O)NC(C)(C)C(=O)N[C@@H](CCCNC(=N)N)C(=O)N[C@@H](CO)C(=O)N[C@H](C(N)=O)[C@@H](C)CC` (some centres unmarked) [SP-10] (Propionyl-RNIARHLA[ξαMeNle(6-ylidene)]VGD[ξαMeNle(6-ylidene)][Nle][Aib]RSI-NH2; staple 9-13), for which the EC50 was determined as 5200 nM in the assay on A375; 1900 nM with DHL-6; 1900 nM with Jurkat; 3100 nM with MDA-MB231-Met; 2500 nM in the assay with MM1S; 1900 nM with Molt-4. Further, the half-maximal effective concentration (EC50) with NCI-H82 (SCLC-MCL1+) worked out at 5700 nM; with OVCAR8 it was 8100 nM; in the assay with PC3, 6000 nM; in the assay with RS4;11, 3500 nM; with Raji, 5000 nM; in the assay on SEMK2, 8200 nM.
`CC[C@H](C)[C@H](NC(C)=O)C(=O)N[C@@H](Cc1c[nH]c2ccccc12)C(=O)N[C@H](C(=O)N[C@@H](C)C(=O)N[C@@H](CCC(N)=O)C(=O)N[C@@H](C)C(=O)N[C@@H](C)C(=O)N[C@@H](CCCNC(=N)N)C(=O)NC1(C)CCCC=CCCCC(C)(C(=O)N[C@@H](C)C(=O)N[C@@H](CC(N)=O)C(=O)N[C@@H](C)C(=O)N[C@@H](Cc2ccc(O)cc2)C(=O)N[C@@H](Cc2ccc(O)cc2)C(=O)N[C@@H](C)C(=O)N[C@@H](CCCNC(=N)N)C(=O)N[C@@H](CCCNC(=N)N)C(N)=O)NC(=O)CNC(=O)[C@H]([C@@H](C)CC)NC(=O)[C@H](CC(=O)O)NC1=O)[C@@H](C)CC` (some centres unmarked) [SP-24] (Ac-IWIAQAAR[ξαMeNle(6-ylidene)]DIG[ξαMeNle(6-ylidene)]ANAYYARR-NH2; staple 9-13): the concentration for a half-maximal effect (EC50) with A375, with Jurkat, with MDA-MB231-Met, in the assay on NCI-H82 (SCLC-MCL1+), in the assay on OVCAR8 and in the assay on PC3 was above 20000 nM each time.
